# Test results taken from patent US9107816B2, “Implantable device for controlled dissolution and diffusion of low solubility drug” (TARIS BIOMEDICAL LLC, priority 2011, dated 2015).
# Experiment: In vitro release of mitomycin C from housing module (100% MMC tablets)
# Assay type: physicochemical
# Conditions: 100% MMC tablet, one face exposed, 20 mL deionized water at 37° C., replenished daily, 8 days, n=3, FIG. 43
# Experimental: The diameter of the tablets was either 2.1 mm or 2.6 mm with the height of 2 mm. The mass of the tablet was approximately 10 mg for 2.1 mm diameter tablet and 16 mg for 2.6 mm diameter tablet.
# Housing modules were made from segments of silicone tube and silicone adhesive. […] The surface ‘b’ of tablet 402 was surrounded by silicone tube 406 and the surface ‘c’ was in contact with silicone adhesive 408.
# Specifically, the housing module 400 was submerged in 20 mL deionized water at 37° C., with the release medium being entirely replenished daily during the test period. The cumulative release of MMC was measure over the test period. In vitro release data is shown in FIG. 43 (n=3; the error bars indicate S.D. around the mean.) (Some error bars are not shown, i.e., when they are smaller than the symbols.).
smiles,measurement,value
"CO[C@@]12[C@H](COC(N)=O)C3=C(C(=O)C(C)=C(N)C3=O)N1C[C@@H]1N[C@@H]12 [MMC, mitomycin C]",cumulative release of MMC (release kinetics),near zero order release was achieved until the tablet was all eroded
